Experimental data taken from ChEMBL document CHEMBL1128494, “Synthesis and sigma binding properties of 1'- and 3'-halo- and 1',3'-dihalo-N-normetazocine analogues” (J Med Chem, 1995).

Biological target: Sigma non-opioid intracellular receptor 1 (Rattus norvegicus) (UniProt Q9R0C9)
Assay: Ratio of the binding affinity against Sigma receptor type 2 to that of Sigma receptor type 1

Sigma non-opioid intracellular receptor 1 (Rattus norvegicus), sequence (Q9R0C9 whole entry): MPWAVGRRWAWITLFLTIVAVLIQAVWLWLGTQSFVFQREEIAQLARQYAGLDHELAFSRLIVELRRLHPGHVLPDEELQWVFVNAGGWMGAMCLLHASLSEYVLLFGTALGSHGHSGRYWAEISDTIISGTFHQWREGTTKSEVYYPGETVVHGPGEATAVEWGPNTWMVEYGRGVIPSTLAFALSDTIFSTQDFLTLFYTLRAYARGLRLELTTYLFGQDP

Compound	Ratio
CC1C2Cc3cc(Br)c(O)cc3C1(C)CCN2Cc1ccccc1 (stereo unspecified)	18
CC1C2Cc3cc(Cl)c(O)c(Cl)c3C1(C)CCN2Cc1ccccc1 (stereo unspecified)	30
CC1C2Cc3ccc(O)cc3C1(C)CCN2Cc1ccccc1 (stereo unspecified)	2600
CC(C)=CCN1CCC2(C)c3c(cc(Br)c(O)c3Br)CC1C2C (single isomer, unassigned; (+))	1.8
CC(C)=CCN1CCC2(C)c3cc(O)c(Br)cc3CC1C2C (single isomer, unassigned; (+))	3.2
CC1C2Cc3cc(Br)c(O)c(Br)c3C1(C)CCN2Cc1ccccc1 (single isomer, unassigned; (+))	28
CC1C2Cc3ccc(O)c(Br)c3C1(C)CCN2Cc1ccccc1 (single isomer, unassigned; (+))	200
CC1C2Cc3ccc(O)c(Cl)c3C1(C)CCN2Cc1ccccc1 (single isomer, unassigned; (+))	440
CC(C)=CCN1CCC2(C)c3cc(O)c(Br)cc3CC1C2C (single isomer, unassigned; (-))	1.9
CC(C)=CCN1CCC2(C)c3cc(O)c(I)cc3CC1C2C (stereo in doubt; (+)-5b)	0.24
CC(C)=CCN1CCC2(C)c3cc(O)c(I)cc3CC1C2C (stereo in doubt; (-)-5b)	2.7
